# Measurements from US9018176B2, “Inducers of hematopoiesis and fetal globin production for treatment of cytopenias and hemoglobin disorders” (priority 2010, dated 2015).
# Where “and” joins values, the source holds several entries; their conditions need not be identical. Equal values may be shown once. Entries after “also recorded” stand apart in the source; their conditions may differ.
# Columns and labels:
# CB BFU-E cells = experiment: CB BFU-E cell proliferation (cells/colony)
# Description: Fetal globin-inducing activity in human erythroid progenitors was assessed. Human erythroid progenitors were cultured from peripheral blood samples, exposed to the test compounds at varying concentrations and for varying durations and analyzed for globin chain mRNA ratios. Erythroid progenitors were cultured from cord blood CD34+ cells. Briefly, CD34+ cells in the human cord blood were separated using a Ficoll-paque density gradient. CD34+ cells were cultured in H4230 medium containing 2 mM L-glutamine, 1% Methylcellulose in Iscove's Medium, 30% Fetal Bovine Serum, 1% Bovine Serum Albumin and 10^-4 M β-mercaptoethanol. Methylcellulose H4230 medium was supplemented with EPO (0.5 U/ml) and IL-3 (20 ng/ml) to support BFU-e growth. Cells were cultured in […] mini-dishes and incubated in a humidified atmosphere containing 5% CO2, at 37° C. Different concentrations of the test compounds were added at the time the cultures were established. Each compound was tested in three different cultures. BFU-e colonies grown in mini-dishes were counted on day 14 and harvested for mRNA analysis.
# [1] = system: red blood cell production; experiment: Total hemoglobin and hematocrit in phlebotomized anemic baboons; format: in vivo, baboons (Papio hamadryas anubis); settings: for total hemoglobin levels: MS-275 as
# Description: (§1) Studies to evaluate pharmacokinetic properties and γ-globin induction were performed in juvenile baboons (Papio hamadryas anubis). Briefly, animals were chronically phlebotomized on a daily basis to achieve stable anemia, maintaining a total hemoglobin level of 7.0 to 7.5 g/dl. Candidate compounds were administered intravenously or orally once daily in single doses for pharmacokinetic studies, or once daily in single doses, 4-5 days per week for 4-5 weeks, for pharmacodynamic studies. […] Levels of γ-globin mRNA expression and globin chain synthesis were assessed in baboons before and during treatment with test compounds. A washout period between administrations of different compounds in the same baboon was provided.
# (§2) Chronically catheterized baboons were phlebotomized daily to create chronic anemia with total hemoglobin levels (Hb) between 7.0 to 7.5 g/dl which simulates the expanded erythropoiesis and anemia in sickle cell disease and beta thalassemia. Blood counts were drawn and total Hb (hemoglobin) and reticulocytes were analyzed on a hemavet analyzer. Fetal globin mRNA was analyzed by RT-PCR and proportions for f-cells were analyzed by flow cytometry. […] Desloratidine (0.6 mg/kg) was administered for 4 days following a washout period. Blood counts were obtained at least 3 days/week.
# Baboon 1509 (weight 10.9 kg) was phlebotomized to induce anemia and marrow expansion, similar to the hemoglobin disorders.
# γ-globin = experiment: Fetal globin (γ-globin mRNA, HbF) induction in phlebotomized anemic baboons; format: in vivo, baboons (Papio hamadryas anubis); settings: for fetal globin mRNA: Benserazide 1 or 3 mg/kg in baboon 1509, MS-275 and desloratidine
# Description: as §1, §2
# Baboons HL-25 and HD50 were phlebotomized daily to create anemia with erythroid expansion. When stably anemic, Desloratidine (0.6 mg/kg) was administered orally, fetal hemoglobin (HbF) protein levels were assayed.
# γ-globin mRNA [2] = experiment: γ-globin mRNA in cultured primary human erythroid progenitors (BFU-e), real-time PCR; format: cell-based; settings: for γ-globin mRNA induction: cultured primary human erythroid progenitors, concentrations pharmacologically achievable in humans; for % induction of γ-globin mRNA gene expression: FIG. 4C, HFU-E (burst-forming units-erythroid) cells, Resveratrol 30 μM, desloratadine 50 μM, NSC 50 μM, Benserazine 5 μM; for effect in increasing % of γ-globin mRNA expression: FIG. 6, BFU-e cells, Desloratadine 3 μM, Benserazide 3 μM, NSC5397 0.6 μM
# Description: Erythroid progenitors were cultured from cord blood CD34+ cells. […] Each compound was tested in three different cultures. […] On day 14, RNA was extracted from cultured erythroid cells, and relative quantification PCR was performed. Briefly, cDNA was generated from equal amounts of total RNA extracted using The PerfectPure RNA Purification Kit (5 Prime Inc Gaithersburg, Md.). Real-time PCR was performed using an ABI 7500 Real-Time PCR system (Applied Biosystems, Foster City, Calif.). Levels of globin mRNA were calculated by the ΔΔCt method. […] GAPDH levels were used for standardization. Western blotting Nuclear extract of K562 cells and 14-day-old BFU-e were analyzed by electrophoresis using 5-24% gradient SDS-polyacrylamide mini-gels (BIORAD Laboratories. Hercules Calif.). Proteins in the gels were transferred to Immobilon-P membranes. Blots were then incubated with BCL11A polyclonal (Novus Biologicals, Littleton Co) or mouse monoclonal (Santa Cruz Biotechnology, Santa Cruz Calif.) antibodies, after washing blots were incubated with anti-rabbit IgG-horseradish peroxidase secondary antibody (ECL, Little Chalfont Buckinghamshire UK). BCL11A bands were detected on the X-ray film using Western Lightning Reagents (Perking Elmer Inc, Waltham, Mass.).
# γ-globin gene promoter = experiment: Dual luciferase reporter assay (μLCRβprRlucAγprFluc cassette) in GM979 cells; format: cell-based; settings: Resveratrol at 10 μM, MS-275 at 5 μM; for activity compared with sodium Butyrate: Ambroxol at 1 μM, Desloratadine at 1 μM, Benserazide at 0.03 μM (or a range of 30 nM-5 μM), NSC-95397 at 1 μM, versus sodium Butyrate at 2000 μM; for most active at inducing γ-globin mRNA expression: Benserazide at 0.03 μM
# Source text: Cell-based screen for γ-globin inducing compounds in GM979 cells (Skarpidi, et al. Blood 2000; 96:321-326). Mini-gene construct integrated into GM979 cell genome. The readout is Firefly/Renilla luciferase ratio, and is designed to identify only strong inducers of the γ-globin promoter, and specificity for the γ- vs. the […]γ-globin gene. This second assay confirmed 12/15 candidates.
# This assay is […], and consists of a dual-luciferase reporter construct containing the LCR and the […] luciferase and the Aγ-globin promoter linked to firefly luciferase (μLCRβprRlucAγprFluc cassette), stably-transfected into GM979 cells. The orientation of the promoters and μLCR allowed detection only of strong, specific inducers of the γ-globin gene promoter. This assay is also been predictive of in vivo HbF-inducing activity.
# The γ-globin-specificity of hits was determined in a secondary assay employing a stably-transfected dual-luciferase reporter construct containing the LCR and the β-globin promoter linked to renilla luciferase and the Aγ-globin promoter linked to firefly luciferase (μLCRβprRlucAγprFluc cassette) (FIG. 2B).
# γ-globin mRNA [3] = experiment: γ-globin mRNA in cultured primary human erythroid progenitors (BFU-e), real-time PCR; format: cell-based
# γ-globin mRNA [4] = experiment: γ-globin mRNA gene expression in K562 cells; format: cell-based; settings: for % induction of γ-globin mRNA gene expression: FIGS. 4A and 4B, Resveratrol 30 μM, desloratadine 50 μM, NSC 50 μM, Benserazine 5 μM
# [5] = system: system A transport of amino acids; settings: cited from earlier work
# cell viability = settings: cited from earlier work; for DNA fragmentation: fragmentation assays
# [6] = Benserazide 1 or 3 mg/kg in baboon 1509
# [7] = MS275 0.5 uM, Cord Blood progenitors
# [8] = MS275 0.5 uM, Normal progenitors
# [9] = Ambroxol 0.1-1 uM, Cord Blood progenitors
# [10] = Ambroxol 0.1-1 uM, Normal progenitors
# [11] = Benserazide 0.1-0.3 uM, Cord Blood progenitors
# [12] = Benserazide 0.1-0.3 uM, Hemoglobin disorder progenitors
# [13] = Benserazide 0.1-0.3 uM, Normal progenitors
structure (smiles),measurement,setting,value
"CCCC(=O)O [Butyrate, butyrate]",concentration required,"CB BFU-E cells; FIG. 8, comparator for the 3 drug candidates",200 µM
"Nc1ccccc1NC(=O)c1ccc(CNC(=O)OCc2cccnc2)cc1 [MS-275, N-(2-aminophenyl)-4-[N-(pyridin-3-yl-methoxycarbonyl)aminomethyl]benzamide]",total hemoglobin levels,[1]; [6],increased
same,blood total hemoglobin (Hb) levels compared with positive control ST20 (150 mg/kg),"[1]; FIG. 12B, MS-275 3 mg/m^2 for 4 days and 2 weeks vs ST20 2 and 4 days, desloratadine 0.6 mg/kg for two days",to a greater extent
same,Increase in γ-globin mRNA above baseline,"γ-globin; Baboon HD50, MS-275 oral 0.18 mg/kg, 0.18 mg/kg",270%
same,fetal globin mRNA,γ-globin,induced
same,γ-globin mRNA expression in blood compared with positive control ST20 (150 mg/kg),"γ-globin; FIG. 12A, MS-275 3 mg/m^2 for 4 days and 2 weeks, desloratadine 0.6 mg/kg for two days vs ST20 after 2 or 4 days",to the same level
same,γ-globin induction compared with arginine butyrate,"γ-globin mRNA [2]; FIG. 13, MS-275 0.5 μM vs arginine butyrate 100 μM, progenitors from human sources with low or high basal HbF",higher activity; also recorded: greater
same,γ-globin mRNA induction,γ-globin mRNA [2],up to 3.7 fold
same,activity compared with sodium Butyrate,γ-globin gene promoter,significantly more active
same,most active at inducing γ-globin mRNA expression,γ-globin gene promoter,most active
same,"fetal globin mRNA, Mean",γ-globin mRNA [3]; [7],345 % of control
same,responses (cultures with induced fetal globin mRNA),γ-globin mRNA [3]; [7],2/2
same,"fetal globin mRNA, Mean",γ-globin mRNA [3]; [8],394 % of control
same,responses (cultures with induced fetal globin mRNA),γ-globin mRNA [3]; [8],5/6
same,"fetal globin mRNA, single subjects","γ-globin mRNA [3]; MS275 0.5 uM, Normal progenitors (MB, MB, JS, ABM, ABM)",680 % of control and 534 % of control and 168 % of control and 463 % of control and 126 % of control
same,"γ-globin induction, dependence on dose","γ-globin mRNA [4]; FIG. 10B, K562 cells",dose-dependent
O=C1C(SCCO)=C(SCCO)C(=O)c2ccccc21 [NSC-95397],% induction of γ-globin mRNA gene expression,γ-globin mRNA [2],most significant % increase
same,effect in increasing % of γ-globin mRNA expression,γ-globin mRNA [2],greatest effect
same,activity compared with sodium Butyrate,γ-globin gene promoter,significantly more active
same,concentration giving the most γ-globin mRNA expression,"γ-globin mRNA [4]; FIG. 5, K562 cells, tested Desloratadine 10 μM-100 μM, Resveratrol 5 μM-30 μM, NSC 1 μM-50 μM",50 µM
same,% induction of γ-globin mRNA gene expression,γ-globin mRNA [4]; K562 cells,most significant % increase
O=C(O)COc1ccccc1 [phenoxyacetic acid],system A transport of amino acids,[5],do not significantly alter
same,DNA fragmentation,cell viability,reduce DNA fragmentation
CC(C)C(N)=O [isobutyramide],cell viability,cell viability; DNA fragmentation assays,decrease cell viability
"Nc1c(Br)cc(Br)cc1CN[C@H]1CC[C@H](O)CC1 [Ambroxol, ambroxol]","fetal globin mRNA, single cultures",γ-globin mRNA [2]; [9],302 % of control and 233 % of control and 193 % of control
same,γ-globin mRNA induction,γ-globin mRNA [2],3 fold
same,activity compared with sodium Butyrate,γ-globin gene promoter,significantly more active
same,"fetal globin mRNA, Means",γ-globin mRNA [3]; [9],243 % of control
same,responses (cultures with induced fetal globin mRNA),γ-globin mRNA [3]; [9],3/4
same,"fetal globin mRNA, Means",γ-globin mRNA [3]; [10],224 % of control
same,responses (cultures with induced fetal globin mRNA),γ-globin mRNA [3]; [10],1/1
"NC(CO)C(=O)NNCc1ccc(O)c(O)c1O (stereo not shown) [Benserazide, 2-amino-3-hydroxy-N′-(2,3,4-trihydroxybenzyl)propanehydrazide]",hemoglobin level after treatment,"[1]; Baboon 1509, Benserazide 1 mg/kg then 2 mg/kg, by 2 weeks after administration, daily phlebotomy continued, before 7.6 g/dl",8.9 g/dL
same,hematocrit after treatment,"[1]; Baboon 1509, Benserazide 1 mg/kg then 2 mg/kg, by 2 weeks after administration, daily phlebotomy continued, before 25.6%",28%
same,blood cell proliferation,[1]; [6],increased blood cell proliferation
same,total hemoglobin levels,[1]; [6],increased
same,Increase in γ-globin mRNA above baseline,"γ-globin; Baboon 1509, Benserazide oral 2 mg/kg",193%
same,fetal globin mRNA,γ-globin,increased
same,responses (cultures with induced fetal globin mRNA),γ-globin mRNA [2]; [11],4/5
same,% induction of γ-globin mRNA gene expression,γ-globin mRNA [2],most significant % increase
same,effect in increasing % of γ-globin mRNA expression,γ-globin mRNA [2],greatest effect
same,γ-globin mRNA induction,γ-globin mRNA [2],up to 5 fold
same,concentrations that induce fetal globin (HbF) mRNA,γ-globin mRNA [2]; primary erythroid progenitors in vitro,0.3 to 5.0 µM
same,activity compared with sodium Butyrate,γ-globin gene promoter,significantly more active
same,most active at inducing γ-globin mRNA expression,γ-globin gene promoter,most active
same,number of blood cells per colony,CB BFU-E cells; FIG. 8,increase the number of blood cells per colony
same,"fetal globin mRNA, Mean",γ-globin mRNA [3]; [11],300 % of control
same,"fetal globin mRNA, Mean",γ-globin mRNA [3]; [12],212 % of control
same,responses (cultures with induced fetal globin mRNA),γ-globin mRNA [3]; [12],4/4
same,"fetal globin mRNA, single subjects","γ-globin mRNA [3]; Benserazide 0.1-0.3 uM, Hemoglobin disorder progenitors (subjects)",178 % of control and 143 % of control and 282 % of control and 128 % of control and 277.3 % of control
same,"fetal globin mRNA, Mean",γ-globin mRNA [3]; [13],151 % of control
same,responses (cultures with induced fetal globin mRNA),γ-globin mRNA [3]; [13],3/4
same,"fetal globin mRNA, single subjects","γ-globin mRNA [3]; Benserazide 0.1-0.3 uM, Normal progenitors (MB, JS, ABM)",115 % of control and 223 % of control and 114 % of control
same,% induction of γ-globin mRNA gene expression,γ-globin mRNA [4]; K562 cells,most significant % increase
CC(=Cc1ccccc1)C(=O)O [α-methyl cinnamic acid],system A transport of amino acids,[5],do not significantly alter
CCCC(=O)OCC [butyric acid ethyl ester],DNA fragmentation,cell viability,reduce DNA fragmentation
